Converted amounts (≈) assume the structure as drawn.
Columns and labels:
Assay type in all cases: functional
[1] = tested on: MCF7; assay: Growth inhibition of human MCF7 cells
[2] = tested on: SF-268; assay: Growth inhibition of human SF268 cells
[3] = tested on: KM-20L2; assay: Growth inhibition of human KM20L2 cells
[4] = tested on: P388; assay: Growth inhibition of mouse P388 cells
[5] = tested on: DU-145; assay: Growth inhibition of human DU145 cells
[6] = tested on: NCI-H460; assay: Growth inhibition of human NCI-H460 cells
[7] = tested on: BXPC-3; assay: Growth inhibition of human BXPC3 cells

GI50 [1] [µg/mL]	GI50 [4] [µg/mL]	GI50 [5] [µg/mL]	GI50 [6] [µg/mL]	GI50 [7] [µg/mL]	Structure (SMILES)	GI50 [2] [µg/mL]	GI50 [3] [µg/mL]
0.12 (≈ 0.184 µM)	0.014 (≈ 0.0215 µM)	0.0065 (≈ 0.00998 µM)	0.2 (≈ 0.307 µM)	7.3 (≈ 11.2 µM)	CCCCCCCCCCCC[C@@H](O)[C@H]1CC[C@H]([C@@H](C[C@H](O)CCCCCCCCCCCCC2=CC(C)OC2=O)OC(C)=O)O1 (some centres undefined)	11.9 (≈ 18.3 µM)	0.034 (≈ 0.0522 µM)
0.3 (≈ 0.999 µM)		0.33 (≈ 1.1 µM)	0.52 (≈ 1.73 µM)	0.3 (≈ 0.999 µM)	Cc1c(O)c(C=O)c(O)c(C(=O)CCc2ccccc2)c1O	0.55 (≈ 1.83 µM)	0.36 (≈ 1.2 µM)
0.0022 (≈ 0.0033 µM)		0.0093 (≈ 0.0139 µM)	1 (≈ 1.5 µM)	1.3 (≈ 1.95 µM)	CCCCCCCCCCCC[C@@H](O)[C@H]1CC[C@H]([C@@H](C[C@H](O)CCCCCCCCCC(O)CCC2=CC(C)OC2=O)OC(C)=O)O1 (some centres undefined) [UVARIBONIN]	1.4 (≈ 2.1 µM)	0.0013 (≈ 0.00195 µM)

Reference: ChEMBL document CHEMBL1144706, “Antineoplastic agents. 558. Ampelocissus sp. cancer cell growth inhibitory constituents” (2008)
